The values that follow are results of earlier work, collected in patent publication US20240207251A1, “PHARMACEUTICAL COMPOSITION CONTAINING ARTESUNATE OR SALT THEREOF AND PYRONARIDINE OR SALT THEREOF, FOR ANTIPYRESIS, ANTI-INFLAMMATORY EFFICACY, ANTI-VIRAL EFFICACY AND TREATMENT OR PREVENTION OF COVID-19, AND METHOD USING SAME” (priority 2021, published 2024).

The test system of one series is SARS-COV 2. Conditions: reported by Joon-Yong Bae et al., bioRxiv, Jul. 28, 2020.
The next series deals with influenza virus. Conditions: reported by Joon-Yong Bae et al., bioRxiv, Jul. 28, 2020.

As to `COc1ccc2nc3cc(Cl)ccc3c(Nc3cc(CN4CCCC4)c(O)c(CN4CCCC4)c3)c2n1` [pyronaridine, 4-[(7-chloro-2-methoxybenzo[b]-1,5-naphthyridin-10-yl)amino]-2,6-bis(1-pyrrolidinylmethyl)phenyl], the “in vitro anti-viral action on COVID-19” value with SARS-COV 2 is recorded as “in vitro anti-viral action”. Moreover, the “in vitro anti-viral action on influenza” value with influenza virus was “in vitro anti-viral action”.

With `C[C@H]1[C@H](OC(=O)CCC(=O)O)O[C@@H]2O[C@@]3(C)CC[C@H]4[C@H](C)CC[C@@H]1[C@@]24OO3` [artesunate, dihydroartemisinine-12-alpha-succinate], the “in vitro anti-viral action on COVID-19” value in the series on SARS-COV 2 is on record as “in vitro anti-viral action”. In the series on influenza virus, the “in vitro anti-viral action on influenza” value was “in vitro anti-viral action”.
